Tested on: DSS-induced ulcerative colitis
Experiment: DSS-induced ulcerative colitis model (body weight, colon length, histology, DAI)
Type: in vivo, ICR mice
Conditions: 3% DSS mice
Procedure: Experimental animals, ICR mice (6 weeks old male) were supplied from Daehan Biolink (Chungcheongbuk-do Province, Korea) and used. After 1 week of adaptation of experimental animals, 7 animals were accommodated in each group. During the experiment, the breeding conditions were 23±2° C. for a temperature, 55±10% for a relative humidity, and 150 to 300 Lux for lighting with a 12-hour cycle (artificial lighting, 8:00 am-8:00 pm). Feed was powdered feed for laboratory animals, and water was provided freely during the experiment period. Acute ulcerative colitis was induced in mice while allowing free intake of water containing 3% (w/v) of DDS for 14 days. During the experiment, each group of experimental animals was observed by checking whether the mice lost weight, urine and feces tests, and bleeding every day. Experimental animals were classified into the following four groups and the experiment was performed (Table 1). Puer tea extract and ASA were orally administered once a day for 14 days from the day of DDS treatment. After the experiment, mice were sacrificed, and the results were measured. Ulcerative colitis is measured by clinical signs such as weight loss, diarrhea with bleeding and mucus, and shortens the length of the colon. […] Weight loss is calculated as the difference between the initial and present weight. Visible rectal bleeding means diarrhea accompanied by bleeding or total rectal bleeding, and the DAI was calculated by the following equation. […] Puer tea extract (100 mg/kg) was orally administered once a day to 7 mice induced with 3% DSS for 14 days, and then the weights of the mice were measured, and the mean of the data in the triplicate experiment was expressed as ±S.D. Puer tea extract (100 mg/kg) was orally administered once a day for 14 days to 7 mice induced with 3% DSS for 14 days, and then the colon was removed, and the colon length was evaluated (A of FIG. 2). […] DAI was calculated as in Examples 1-5), and the mean of the experimental data was expressed as ±SD.

5-acetylsalicylic acid [5-ASA]
colon length (100 mg/kg orally once a day for 14 days, normal group 8.01±0.16, DSS group 5.25±0.12): 6.77±0.33 cm
thickness of the barrier muscle layer (H&E colon sections) (14 days, vs DSS group): became thinner again
DAI clinical symptoms (weight loss, diarrhea, rectal bleeding) (once a day for 14 days, vs DSS single treatment): significantly decreased

Source: patent US12447187B2, “Composition for preventing and treating inflammatory bowel disease including puer tea extract” (priority 2021, dated 2025)
